target: Nitric oxide synthase 1 (Rattus norvegicus) (UniProt P29476); assay: Effect on the activity of recombinant rat neuronal nitric oxide synthase as determined with radioactive L-arginine/L-citruline conversion assay; set-up: concentration or dose not given beside the values; conditions: concentration not given here
Sequence (P29476 whole entry): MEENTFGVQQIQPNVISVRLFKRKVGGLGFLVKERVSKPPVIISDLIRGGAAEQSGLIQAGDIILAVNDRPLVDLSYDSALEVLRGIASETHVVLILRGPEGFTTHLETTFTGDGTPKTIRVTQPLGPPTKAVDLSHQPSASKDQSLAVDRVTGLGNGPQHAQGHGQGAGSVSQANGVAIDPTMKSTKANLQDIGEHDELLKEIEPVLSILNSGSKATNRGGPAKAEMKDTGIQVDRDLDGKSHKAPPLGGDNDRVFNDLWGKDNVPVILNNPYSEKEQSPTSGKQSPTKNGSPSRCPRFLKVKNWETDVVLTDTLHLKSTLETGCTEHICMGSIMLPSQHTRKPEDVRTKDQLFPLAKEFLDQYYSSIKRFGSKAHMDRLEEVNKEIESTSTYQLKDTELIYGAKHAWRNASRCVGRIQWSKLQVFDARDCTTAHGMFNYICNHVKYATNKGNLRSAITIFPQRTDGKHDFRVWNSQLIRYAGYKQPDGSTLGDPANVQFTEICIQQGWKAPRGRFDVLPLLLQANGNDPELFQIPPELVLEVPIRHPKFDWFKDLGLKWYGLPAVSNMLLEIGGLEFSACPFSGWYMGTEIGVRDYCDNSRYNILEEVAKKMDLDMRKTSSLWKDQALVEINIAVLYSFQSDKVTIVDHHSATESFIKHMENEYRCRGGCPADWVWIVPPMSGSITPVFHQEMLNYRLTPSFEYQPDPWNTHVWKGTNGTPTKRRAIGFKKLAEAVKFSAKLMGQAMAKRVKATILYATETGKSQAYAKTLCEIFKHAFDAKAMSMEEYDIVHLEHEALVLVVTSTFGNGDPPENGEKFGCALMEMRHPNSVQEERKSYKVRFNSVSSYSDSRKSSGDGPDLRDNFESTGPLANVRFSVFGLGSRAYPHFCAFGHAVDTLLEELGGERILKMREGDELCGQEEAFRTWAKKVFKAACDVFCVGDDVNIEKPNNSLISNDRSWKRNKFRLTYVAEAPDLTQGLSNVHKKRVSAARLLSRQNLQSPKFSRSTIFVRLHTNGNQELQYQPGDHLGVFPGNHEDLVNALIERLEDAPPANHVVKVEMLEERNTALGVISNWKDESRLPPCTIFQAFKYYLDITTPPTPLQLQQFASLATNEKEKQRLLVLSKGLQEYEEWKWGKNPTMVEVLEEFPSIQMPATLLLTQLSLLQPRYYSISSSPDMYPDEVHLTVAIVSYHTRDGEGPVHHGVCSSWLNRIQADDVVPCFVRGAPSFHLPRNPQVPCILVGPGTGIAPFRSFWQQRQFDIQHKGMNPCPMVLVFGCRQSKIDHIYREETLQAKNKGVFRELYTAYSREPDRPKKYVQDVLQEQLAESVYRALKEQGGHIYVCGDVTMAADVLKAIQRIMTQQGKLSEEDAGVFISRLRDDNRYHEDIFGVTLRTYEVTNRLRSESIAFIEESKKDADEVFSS

Compound	inhibition [%]
NCCc1cc(O)c(O)cc1[N+](=O)[O-]	71
O=[N+]([O-])c1cccc(O)c1O	94
Cc1cc(O)c(O)cc1[N+](=O)[O-]	35
NCC(O)c1cc(O)c(O)cc1[N+](=O)[O-] (stereo unspecified)	78
Cc1cc([N+](=O)[O-])cc(O)c1O	28
O=[N+]([O-])c1ccc(O)c(O)c1	33
